Key:
AR mRNA = test: AR RNA expression in C4-2 cells (complete, CSS+DHT medium); format: cell-based, human; settings: 48 hrs; for Percent expression of AR: C4-2 cells, CSS + DHT medium
Method: Cells were plated at 1,000 cells per well. […] After an incubation period of 48 hrs, RNA levels of AR, PSA and TMPRSS2 were measured.
Cells were plated at 2,000 cells per well and cultured in CSS media with 1 nM DHT. […] After an incubation period of 48 hrs, RNA levels of AR, PSA and TMPRSS2 were measured.

C4-2B cells = test: C4-2B cell proliferation, ASO in combination with MDV3100 (Example 19); format: cell-based, human
Method: C4-2B cells were plated at 1,500 cells per well. […] ISIS 347526 was included as a negative control. […] After a treatment period of 6 days, the proliferative capacity of the cancer cells was measured with CellTiter 96® AQueous One Solution Cell Proliferation kit (Promega), following the manufacturer's instructions. Results are presented in Table 46 as percent inhibition of proliferation, relative to non-treated cells. Treatment of the cells with ISIS 549372 or ISIS 549458 reduced proliferation of the cells more extensively than treatment with ISIS 554221.

| Sequence | Percent expression of AR (AR mRNA; 0.04 μM) | Percent expression of AR (AR mRNA; 0.2 μM) | Percent expression of AR (AR mRNA; 1 μM) | Percent expression of AR in C4-2 cells cultured in complete medium (AR mRNA; 0.04 μM) | Percent expression of AR in C4-2 cells cultured in complete medium (AR mRNA; 0.2 μM) | Percent expression of AR in C4-2 cells cultured in complete medium (AR mRNA; 1 μM) | Percent expression of AR in C4-2 cells cultured in complete medium (AR mRNA; 5.0 μM) | Percent inhibition of C4-2B cell proliferation with 0.1 μM ASO (C4-2B cells; 0.1 μM ASO + MDV3100 1 μM, 6 days) | Percent inhibition of C4-2B cell proliferation with 0.1 μM ASO (C4-2B cells; 0.1 μM ASO + MDV3100 […], 6 days) | Percent inhibition of C4-2B cell proliferation with 0.1 μM ASO (C4-2B cells; 0.1 μM ASO, MDV3100 0 μM, 6 days) | Percent inhibition of C4-2B cell proliferation with 0.2 μM ASO (C4-2B cells; 0.2 μM ASO + MDV3100 1 μM, 6 days) | Percent inhibition of C4-2B cell proliferation with 0.2 μM ASO (C4-2B cells; 0.2 μM ASO + MDV3100 […], 6 days) | Percent inhibition of C4-2B cell proliferation with 0.2 μM ASO (C4-2B cells; 0.2 μM ASO, MDV3100 0 μM, 6 days) | synergy with MDV3100 (C4-2B cells; C4-2B cells) | cell proliferation inhibited, combination (C4-2B cells; C4-2B cells, 0.1 μM ASO in combination with […] MDV3100) | inhibited cell proliferation, ASO alone (C4-2B cells; C4-2B cells, ASO alone at 0.1 μM) | reduced cell proliferation, ASO alone (C4-2B cells; C4-2B cells, ASO alone, 6 days, Table 46 (0.1 μM ASO)) | prostate cancer cell proliferation, ASO in combination with MDV3100 (C4-2B cells; C4-2B cells, versus equal molar ISIS 554221 + MDV3100) |
| --- | --- | --- | --- | --- | --- | --- | --- | --- | --- | --- | --- | --- | --- | --- | --- | --- | --- | --- |
| GGCTACTACGCCGTCA (3-10-3 (S)-cEt gapmer, chemistry not fully specified) [ISIS 549148, reference compound] | 101% | 101% | 118% | 89% | 90% | 84% | 86% | – | – | – | – | – | – | – | – | – | – | – |
| GTTGATTTAATGGTTG (all phosphorothioate, sugars by position not given here; further chemistry not fully specified) [ISIS 549458] | – | – | – | – | – | – | – | 75% | 59% | 39% | 79% | 75% | 74% | synergistic with MDV3100 | 75% | 39% | 74% | inhibited prostate cancer cell proliferation to a greater extent than an equal molar concentration of ISIS 554221 in combination of MDV3100 |
